Laboratory results published in paper PMC11322472, “Enhancing [^177Lu]Lu-DOTA-TATE therapeutic efficacy in vitro by combining it with metronomic chemotherapeutics” (EJNMMI Research, 2024).
Values after ≈ are worked out from the molar mass of the structure shown. Like-named read-outs stand apart in the source and are kept apart here.

Key:
U2OS cells [1] = type: cell-based, human; details: parental U2OS cells; label = chemotherapeutic pre-treatment; MTT at day 7, N = 3
Protocol: (§1) Excess MTT was then removed. Formazan crystals were dissolved with 50 μL/well in dimethylsulfoxide (DMSO) for 2 min at room temperature (RT) under gentle agitation. Well absorbance at 570 nm was then measured on a UV/V is absorbance microplate reader (SPECTROstar® Nano, BMG LABTECH). Metabolic viability, following signal-to-background correction, was calculated as the percentage signal in treated cells normalised to the signal in untreated cells.

BON1 cells [2] = type: cell-based, human; details: parental BON1 cells; label = chemotherapeutic pre-treatment; MTT at day 7, N = 3
Protocol: as §1

U2OS + SSTR2A cells [3] = experiment: Viability after chemotherapeutic agents (GI50, MTT); type: cell-based; details: Homo sapiens, 24 h treatment, further 5 days growth, from fitted curves, N = 3
Protocol: (§2) U2OS/U2OS + SSTR2A and BON1/BON1 + SSTR2A cells were seeded in 96-well plates at 2 × 10^3 and 4 × 10^3 cells/well, respectively, and allowed to adhere overnight in the incubator. Cells were then treated with a range of hydroxyurea, gemcitabine, and triapine concentrations for 24 h. Hydroxyurea in U2OS/U2OS + SSTR2A cells was used at 152 µg/mL for 24 h. Chemotherapeutics were then removed, and cells washed with PBS prior to returning to the incubator in fresh medium. Cells were then grown for a further 5 days post-chemotherapeutics prior to assessing metabolic viability, as described above. Chemotherapeutic concentrations needed to inhibit population growth by 50% (GI50) were then calculated.

BON1 + SSTR2A cells [4] = experiment: as above; type: cell-based, human; details: 24 h treatment, further 5 days growth, from fitted curves
Protocol: as §2

U2OS + SSTR2A cells [5] = experiment: X-ray radiotherapy viability post chemotherapeutics; type: cell-based, human; details: 24 h 2 mM HU, 4 ng/mL GEM, 200 ng/mL TRI, X-ray 0, 2 and 4 Gy, N = 3 (Figure S7)
Protocol: (§3) Cells where then treated with chemotherapeutics for 24 hours at 2 mM HU, 4 ng/mL GEM and 200 ng/mL TRI. Following chemotherapeutics, media was refreshed, and cells were X-ray irradiated at 0 (sham-irradiated), 2 and 4 Gy using the image-guided small animal radiotherapy system, SmART+, X-ray irradiator (Precision X-ray Irradiation). The calibrated dose-rate was 6.1796 Gy.min^-1; the X-ray beam used for treatment was set at a voltage of 225 kV, a current of 20 mA and passed through a 0.3 mm Cu filter. Viability analyses were then carried out as above.

U2OS cells [6] = experiment: as above; type: cell-based, human; details: 24 h 2 mM HU, 4 ng/mL GEM, 200 ng/mL TRI, X-ray 0, 2 and 4 Gy, N = 3 (Figure S7)
Protocol: as §3

U2OS cells [7] = experiment: [^177Lu]Lu-DOTA-TATE uptake; type: cell-based, human; details: U2OS parental cells, 24-hour incubation, 25 nM DOTA-TATE, 0.74–1.03 MBq, mean ± SD, N = 3–4
Protocol: (§5) 1.5 × 10^5 U2OS/U2OS + SSTR2A or 2 × 10^5 BON1/BON1 + SSTR2A cells were seeded into 6-well plates in medium and allowed to adhere overnight in the incubator. The following day, 0.70–0.93 MBq (U2OS/U2OS + SSTR2A) or 0.75–1.03 MBq (BON1/BON1 + SSTR2A) [^177Lu]Lu-DOTA-TATE was added to wells (25 nM total DOTA-TATE) and incubated for 24 h. Excess [^177Lu]Lu-DOTA-TATE was then removed from wells and pooled together with two PBS washes (“Unbound” fraction). Cell-associated activity was harvested from wells by lysing cells with 0.5 M NaOH solution and pooled with a subsequent PBS wash (“Bound” fraction). Data was presented as percentage added activity (%AA) and activity per cell (Bq/cell).

BON1 + SSTR2A cells [8] = experiment: [^177Lu]Lu-DOTA-TATE uptake; type: cell-based, human; details: 24-hour incubation, 25 nM DOTA-TATE, 0.74–1.03 MBq, mean ± SD, N = 3–4
Protocol: as §5
1.5 × 10^5 U2OS/U2OS + SSTR2A or 2 × 10^5 BON1/BON1 + SSTR2A cells were seeded into 6-well plates in DMEM-HG or DMEM/F-12 medium, respectively, and allowed to adhere overnight in the incubator. Cells where then treated with chemotherapeutics for 24 h at the following concentrations: 152 µg/mL hydroxyurea, 4 ng/mL gemcitabine, and 200 ng/mL triapine for U2OS/U2OS + SSTR2A cells; and 152 µg/mL hydroxyurea, 2 ng/mL gemcitabine, and 100 ng/mL triapine for BON1/BON1 + SSTR2A cells. Following a 4 h recovery period after chemotherapeutics, medium was replaced with 1 mL of medium containing [^177Lu]Lu-DOTA-TATE for 24 h at 0.7–0.93 MBq for U2OS/U2OS + SSTR2A cells or 0.75–1.03 MBq for BON1/BON1 + SSTR2A cells. […]

BON1 cells [9] = experiment: [^177Lu]Lu-DOTA-TATE uptake; type: cell-based, human; details: BON1 parental cells, 24-hour incubation, 25 nM DOTA-TATE, 0.74–1.03 MBq, mean ± SD, N = 3–4
Protocol: as §5

BON1 + SSTR2A cells [10] = experiment: Subcellular localisation of [^177Lu]Lu-DOTA-TATE; details: no chemotherapeutic (Untreated), 24 h, 25 nM, mean ± SD, N = 3
Protocol: (§6) Subcellular localisation of [^177Lu]Lu-DOTA-TATE in cells followed the protocol for the uptake assays above, except that, following removal of excess [^177Lu]Lu-DOTA-TATE, cells were incubated with ice-cold 0.1 M glycine (pH 2.5) for 10 min prior to pooling with a further PBS wash (“Membrane” fraction). Cells were then detached with Accutase and diluted in medium prior to pelleting and transferring the supernatant to the “Cytoplasm” fraction. The cell pellet was resuspended in ice-cold cell lysis buffer (25 mM KCl, 5 mM MgCl2, 10 mM Tris-HCl, and 0.5% v/v IGEPAL CA-630) and incubated for 15 min. Intact nuclei were pelleted and separated from lysed cells by centrifugation (10,000 g, 3 min) and the supernatant removed and combined with the previous portion of the “Cytoplasm” fraction. Pelleted nuclei were resuspended in phosphate-buffered saline (PBS) and transferred to tubes to gamma counting (“Nuclear” fraction). The percentage distribution of [^177Lu]Lu-DOTA-TATE in cells was then calculated for the membrane, cytoplasm, and nucleus.

U2OS + SSTR2A cells [11] = experiment: Subcellular localisation of [^177Lu]Lu-DOTA-TATE; details: no chemotherapeutic (Untreated), 24 h, 25 nM, mean ± SD, N = 3
Protocol: as §6

U2OS + SSTR2A cells [12] = experiment: [^177Lu]Lu-DOTA-TATE uptake (with or without chemotherapeutic pre-treatment); details: 25 nM DOTA-TATE, mean ± SD
Protocol: as §5
1.5 × 10^5 U2OS/U2OS + SSTR2A or 2 × 10^5 BON1/BON1 + SSTR2A cells were seeded into 6-well plates in DMEM-HG or DMEM/F-12 medium, respectively, and allowed to adhere overnight in the incubator. Cells where then treated with chemotherapeutics for 24 h at the following concentrations: 152 µg/mL hydroxyurea, 4 ng/mL gemcitabine, and 200 ng/mL triapine for U2OS/U2OS + SSTR2A cells; and 152 µg/mL hydroxyurea, 2 ng/mL gemcitabine, and 100 ng/mL triapine for BON1/BON1 + SSTR2A cells. Following a 4 h recovery period after chemotherapeutics, medium was replaced with 1 mL of medium containing [^177Lu]Lu-DOTA-TATE for 24 h at 0.7–0.93 MBq for U2OS/U2OS + SSTR2A cells or 0.75–1.03 MBq for BON1/BON1 + SSTR2A cells. […] Uptake and viability studies were then carried out as above.

U2OS + SSTR2A cells [13] = experiment: [^177Lu]LuCl3 uptake; type: cell-based, human; details: 0.97 MBq, 24-hour incubation, N = 3 (Figure S3)
Protocol: (§4) The following day, 0.97 MBq [^177Lu]LuCl3 was added to wells and incubated for 24 hours. […] Data is presented as both percentage uptake of total added activity and normalised as Bq/cell uptake.

U2OS cells [14] = experiment: [^177Lu]LuCl3 uptake; type: cell-based, human; details: 0.97 MBq, 24-hour incubation, N = 3 (Figure S3)
Protocol: as §4

U2OS + SSTR2A cells [15] = experiment: [^177Lu]LuCl3 and DOTA-TATE viability (MTT); type: cell-based, human; details: MTT after 7 days
Protocol: 2x10^3 U2OS or U2OS+SSTR2A cells, after treatment for 24 hours with [^177Lu]LuCl3 (0.97 MBq) or DOTA-TATE (25 nM, U2OS+SSTR2A only), were reseeded in technical sextuplet wells in 96-well plates containing a final media volume of 180 µL/well. Dedicated wells with no cells present served as background signal controls. Plates were placed in the incubator and cells allowed to adhere and grow for 7 days. After 7 days, DMEM-HG was aspirated and replaced with 90 µL of basal DMEM-HG containing 0.5 mg/mL MTT. Plates were returned to the incubator for 4 h prior to aspiration of excess MTT. Formazan crystals were then dissolved with 50 µL/well DMSO for 2 minutes at RT under gentle agitation. Well absorbance at 570 nm wavelength was then immediately measured on a UV/Vis absorbance microplate reader (SPECTROstar® Nano, BMG LABTECH). Metabolic viability, following signal background-correction, was calculated as the percentage of signal normalized to the signal of the respective fully-untreated or chemotherapeutic-alone cells.

[16] = Homo sapiens, N = 3, read-out: GI50

Nc1ccn([C@@H]2O[C@H](CO)[C@@H](O)C2(F)F)c(=O)n1 [Gemcitabine, gemcitabine]
Effect on viability of combining chemotherapeutic with [^177Lu]Lu-DOTA-TATE (U2OS cells [1]): did not affect viability | Effect on viability of combining chemotherapeutic with [^177Lu]Lu-DOTA-TATE (BON1 cells [2]): did not affect viability | GI50 (U2OS + SSTR2A cells [3]): 0.0047 mg/L (≈ 0.0179 µM) | GI50 (BON1 + SSTR2A cells [4]; [16]): 0.0022 mg/L (≈ 0.00836 µM) | potentiation of X-ray radiation effects by chemotherapeutic pre-treatment (viability) (U2OS + SSTR2A cells [5]): potentiation of radiation effects was seen | potentiation of X-ray radiation effects by chemotherapeutic pre-treatment (viability) (U2OS cells [6]): potentiation of radiation effects was seen

NC(=O)NO [Hydroxyurea, hydroxyurea]
Effect on viability of combining chemotherapeutic with [^177Lu]Lu-DOTA-TATE (U2OS cells [1]): did not affect viability | Effect on viability of combining chemotherapeutic with [^177Lu]Lu-DOTA-TATE (BON1 cells [2]): did not affect viability | GI50 (BON1 + SSTR2A cells [4]; N = 3): 248.1 (152) µg/mL | potentiation of X-ray radiation effects by chemotherapeutic pre-treatment (viability) (U2OS + SSTR2A cells [5]): potentiation of radiation effects was seen | potentiation of X-ray radiation effects by chemotherapeutic pre-treatment (viability) (U2OS cells [6]): potentiation of radiation effects was seen

NC(=S)N/N=C/c1ncccc1N [Triapine, triapine]
Effect on viability of combining chemotherapeutic with [^177Lu]Lu-DOTA-TATE (U2OS cells [1]): did not affect viability | Effect on viability of combining chemotherapeutic with [^177Lu]Lu-DOTA-TATE (BON1 cells [2]): did not affect viability | GI50 (U2OS + SSTR2A cells [3]): 0.12 mg/L (≈ 0.617 µM) | GI50 (BON1 + SSTR2A cells [4]; [16]): 0.327 mg/L (≈ 1.67 µM) | potentiation of X-ray radiation effects by chemotherapeutic pre-treatment (viability) (U2OS + SSTR2A cells [5]): potentiation of radiation effects was seen | potentiation of X-ray radiation effects by chemotherapeutic pre-treatment (viability) (U2OS cells [6]): potentiation of radiation effects was seen

C[C@@H](O)[C@H](NC(=O)[C@@H]1CSSC[C@H](NC(=O)[C@@H](Cc2ccccc2)NC(=O)CN2CCN(CC(=O)O)CCN(CC(=O)O)CCN(CC(=O)O)CC2)C(=O)N[C@@H](Cc2ccc(O)cc2)C(=O)N[C@H](Cc2c[nH]c3ccccc23)C(=O)N[C@@H](CCCCN)C(=O)N[C@@H]([C@@H](C)O)C(=O)N1)C(=O)O [[^177Lu]Lu-DOTA-TATE, [^177Lu]Lu-[DOTA^0-Tyr^3]octreotate, metal not drawn]
Uptake (mBq/cell) (U2OS cells [7]): 4.4 ± 1.0 mBq/cell | Uptake (%AA) (U2OS cells [7]; percentage added activity): 0.3 ± 0.0 %AA | Uptake (mBq/cell) (BON1 + SSTR2A cells [8]): 111.2 ± 16.5 mBq/cell | Uptake (%AA) (BON1 + SSTR2A cells [8]; percentage added activity): 9.6 ± 0.6 %AA | Uptake (mBq/cell) (BON1 cells [9]): 6.5 ± 6.3 mBq/cell | Uptake (%AA) (BON1 cells [9]; percentage added activity): 0.5 ± 0.3 %AA | Cytoplasm (%) of total uptake of [^177Lu]Lu-DOTA-TATE (BON1 + SSTR2A cells [10]): 90.2 ± 1.7% | Membrane (%) of total uptake of [^177Lu]Lu-DOTA-TATE (BON1 + SSTR2A cells [10]): 7.3 ± 1.0% | Nucleus (%) of total uptake of [^177Lu]Lu-DOTA-TATE (BON1 + SSTR2A cells [10]): 2.5 ± 0.7% | Cytoplasm (%) of total uptake of [^177Lu]Lu-DOTA-TATE (U2OS + SSTR2A cells [11]): 93.5 ± 0.9% | Membrane (%) of total uptake of [^177Lu]Lu-DOTA-TATE (U2OS + SSTR2A cells [11]): 4.1 ± 0.6% | Nucleus (%) of total uptake of [^177Lu]Lu-DOTA-TATE (U2OS + SSTR2A cells [11]): 2.3 ± 0.4% | Uptake (mBq/cell) (U2OS + SSTR2A cells [12]; U2OS + SSTR2A cells, 24-hour incubation, 0.74–1.03 MBq, N = 3–4): 216.9 ± 47.4 mBq/cell | Uptake (%AA) (U2OS + SSTR2A cells [12]; U2OS + SSTR2A cells, 24-hour incubation, 0.74–1.03 MBq, percentage added activity, N = 3–4): 17.8 ± 2.4 %AA | Internalized quantities of [^177Lu]Lu-DOTA-TATE (U2OS + SSTR2A cells [12]; untreated (no chemotherapeutic) U2OS + SSTR2A cells, 24 h, 0.7–1.03 MBq): 0.2 ± 0.05 Bq/cell

[177Lu+3].[Cl-].[Cl-].[Cl-] [[^177Lu]LuCl3]
Uptake of unchelated [^177Lu]LuCl3 (U2OS + SSTR2A cells [13]): low | Uptake of unchelated [^177Lu]LuCl3 (U2OS cells [14]): low | metabolic viability after [^177Lu]LuCl3 (U2OS + SSTR2A cells [15]; SSTR2A-expressing cells, 0.97 MBq for 24 hours, N = 3 (Figure S4)): only minor reductions in metabolic viability

DOTA-TATE
metabolic viability after non-radioactive DOTA-TATE (U2OS + SSTR2A cells [15]; U2OS + SSTR2A cells, 25 nM for 24 h, N = 4 (Figure S5)): did not reduce metabolic viability
